Test results published in PubChem BioAssay (NCI).
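Each compound was tested at five concentrations against cells in 96-well plates for 48 hours. At the GI50, growth is halved. Definition used: TGI = concentration required for complete inhibition of growth.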

Assays:
Experiment in all cases: NCI tumour cell line growth inhibition, 48 h
[1] = test system: A549 NSCLC
[2] = test system: COLO 205 colon
[3] = test system: HCC-2998 colon
[4] = test system: HL-60(TB) leukemia
[5] = test system: MDA-MB-435
[6] = test system: OVCAR-5 ovarian
[7] = test system: SNB-75 CNS
[8] = test system: SW-620 colon
[9] = test system: T-47D breast
[10] = test system: UO-31 renal

| Structure (SMILES) | GI50 [1] [µM] | TGI [1] [µM] | GI50 [2] [µM] | TGI [2] [µM] | GI50 [3] [µM] | TGI [3] [µM] | GI50 [4] [µM] | TGI [4] [µM] | GI50 [5] [µM] | TGI [5] [µM] | GI50 [6] [µM] | TGI [6] [µM] | GI50 [7] [µM] | TGI [7] [µM] | GI50 [8] [µM] | TGI [8] [µM] | GI50 [9] [µM] | TGI [9] [µM] | GI50 [10] [µM] | TGI [10] [µM] |
| --- | --- | --- | --- | --- | --- | --- | --- | --- | --- | --- | --- | --- | --- | --- | --- | --- | --- | --- | --- | --- |
| CC1(C)N=C(N)N=C(N)N1c1cccc(CCCCc2ccccc2)c1 | 0.0382 | 1.35 | 0.448 | 2.36 | 0.195 | 3.82 | 0.0925 | 2.52 | 0.0616 | 11.9 | 11.1 | 25.9 | 3.06 | 16.3 | 0.0532 | 16.4 | 1.28 | 16.2 | 10.2 | 32 |
| OCCNc1ncnc2c1ncn2C1OC(CO)C(O)C1O (centres undefined) | – | > 100 | – | > 100 | – | > 100 | – | > 100 | – | > 100 | – | > 100 | – | > 100 | – | > 100 | – | > 100 | – | > 100 |
| O=c1oc2ccc(Cl)cc2c(=O)n1-c1cc(C(F)(F)F)cc(C(F)(F)F)c1 | 0.339 | 13.1 | 1.78 | 3.72 | 0.346 | 3.77 | 0.231 | 0.553 | 0.313 | 2.07 | 0.423 | 17.4 | 0.201 | 0.786 | 0.328 | 5.95 | 0.229 | 2.4 | 0.238 | 0.831 |
| COc1ccc(-c2cc(-c3cn[nH]c3-c3ccccn3)ccn2)cc1 | > 25 | > 25 | > 25 | > 25 | > 25 | > 25 | > 25 | > 25 | > 19.2 | > 25 | > 25 | > 25 | > 25 | > 25 | > 25 | > 25 | > 25 | > 25 | 20.4 | > 25 |
| Cc1ccc(N=Nc2c(N)nn(-c3ccccc3)c2N)cc1 | 2.13 | > 100 | 1.21 | > 26.9 | 0.912 | > 100 | 0.638 | > 21.6 | 0.177 | 0.568 | – | – | 2.3 | > 78.3 | 0.493 | > 100 | 1.74 | > 100 | 7.97 | > 100 |
| c1ccc(-c2nnc(Nc3ccc4c(c3)OCCO4)o2)c(NCc2ccncc2)c1 | 0.0388 | 15.4 | 0.0286 | 0.076 | 0.0296 | 1.35 | 0.0236 | 0.722 | < 0.01 | 0.0171 | 0.0904 | 79 | 0.0125 | 12.1 | 0.0255 | > 100 | 1.65 | 16.9 | 0.22 | 26.3 |
| O=C(NC(=S)NNC(=S)NNc1ccccc1)c1ccccc1 | 8.58 | > 100 | 9.81 | > 100 | 8.53 | > 100 | 3.27 | 8.52 | 3.47 | > 100 | > 100 | > 100 | 3.09 | > 100 | 4.09 | > 100 | 3.24 | > 100 | 4.69 | > 100 |
| O=C(O)CCCSc1nc2ccccc2s1 | – | > 100 | – | > 100 | – | > 100 | – | > 100 | – | > 100 | – | > 100 | – | > 100 | – | > 100 | – | > 100 | – | > 100 |
| O=C1OC(C2=CC(=O)c3ccccc3C2=O)C(Cl)=C1Cl (centres undefined) | – | > 100 | – | > 100 | – | 61.3 | – | > 100 | – | > 100 | – | > 100 | – | > 100 | – | 94.1 | – | 83.7 | – | 31.8 |
| CO/N=C(/COc1c(-c2ccccc2)oc2ccccc2c1=O)c1ccc(OC)cc1 | > 100 | > 100 | > 100 | > 100 | > 100 | > 100 | 21.5 | > 100 | 30.7 | > 100 | > 100 | > 100 | 58.7 | > 100 | > 100 | > 100 | 26.9 | > 100 | 61.3 | > 100 |
| COc1cccc(-n2ncc3c(N/N=C/c4ccc(S(C)(=O)=O)cc4)ncnc32)c1 | 9.24 | > 25 | 7.64 | > 25 | 12.4 | > 25 | > 25 | > 25 | 3.55 | > 25 | > 25 | > 25 | 1.89 | 4.32 | > 25 | > 25 | 7.4 | > 21 | 5.77 | 14.3 |
| CO[C@H]1C[C@@H]2CC[C@@H](C)[C@@](O)(O2)C(=O)C(=O)N2CCCC[C@H]2C(=O)O[C@H]([C@H](C)C[C@@H]2CC[C@@H](OP(C)(C)=O)[C@H](OC)C2)CC(=O)[C@H](C)/C=C(\C)[C@@H](O)[C@@H](OC)C(=O)[C@H](C)C[C@H](C)/C=C/C=C/C=C/1C | < 0.01 | 20.7 | 12.7 | 27.7 | 5.02 | 24.7 | 17.5 | 39.8 | 1.41 | 23.9 | 11.4 | 27.6 | < 0.01 | 15.7 | 12.1 | 27.9 | < 0.01 | 23 | < 0.01 | 16.1 |
| Nc1ccn(C2CC(O)C(CO)O2)c(=O)n1 (centres undefined) | > 5000 | > 5000 | > 5000 | > 5000 | > 5000 | > 5000 | > 5000 | > 5000 | > 5000 | > 5000 | > 5000 | > 5000 | > 5000 | > 5000 | > 5000 | > 5000 | > 5000 | > 5000 | > 5000 | > 5000 |
| CCN(CC)CCCOc1cc(O)c2c(=O)cc(-c3ccccc3)oc2c1 | 5.53 | 22.5 | 4.21 | 15.5 | 10.1 | 24.4 | 3.98 | 15.3 | 5.5 | 24.8 | 13 | 25.7 | 8.36 | 22.3 | 6.27 | 19.3 | 15.5 | 33.4 | 3.74 | 15.9 |
| CCN(C(=O)CCl)C(C)(C)C(SSSC(c1ccc(Cl)cc1)C(C)(C)N(CC)C(=O)CCl)c1ccc(Cl)cc1 (centres undefined) | 15 | 31.1 | 7.21 | 24.8 | 11.1 | 26.6 | 2.1 | 7.92 | 2.14 | 5.49 | 13.8 | 27.9 | 13.3 | 29.5 | 3.85 | 14.6 | 5.3 | 26.3 | 3.88 | 15.3 |
| Nc1c(C(=O)c2cccc(CCC3(O)CCCC3)c2)cnn1-c1ccc(F)cc1 | 12.6 | > 25 | 16.6 | > 25 | > 25 | > 25 | 16.2 | > 25 | 8.98 | > 25 | > 25 | > 25 | 8.47 | > 25 | > 20.7 | > 25 | 6.52 | > 25 | 8.21 | > 25 |
| COC(=O)c1ccc2c(c1)C(=O)c1c-2n(CCCN)c(=O)c2cc([N+](=O)[O-])ccc12 | < 0.03 | 0.894 | 0.0737 | 1.69 | < 0.01 | 0.058 | < 0.0194 | 1.39 | 0.105 | 1.44 | 0.139 | 0.661 | < 0.0348 | – | < 0.01 | 1.27 | < 0.0173 | 1.34 | < 0.0137 | < 0.0405 |
| C/C1=C\C/C=C(\C)[C@H]2CC(CC/C(C)=C/CC1)[C@@](C)(CO)O2 | > 100 | > 100 | > 100 | > 100 | > 100 | > 100 | 16.8 | 51.1 | > 100 | > 100 | > 100 | > 100 | > 100 | > 100 | 52.9 | > 100 | > 100 | > 100 | 21.7 | 89.9 |
| O=C(OCC1OC(OC(=O)c2cc(O)c(O)c(OC(=O)c3cc(O)c(O)c(O)c3)c2)C(OC(=O)c2cc(O)c(O)c(OC(=O)c3cc(O)c(O)c(O)c3)c2)C(OC(=O)c2cc(O)c(O)c(OC(=O)c3cc(O)c(O)c(O)c3)c2)C1OC(=O)c1cc(O)c(O)c(OC(=O)c2cc(O)c(O)c(O)c2)c1)c1cc(O)c(O)c(OC(=O)c2cc(O)c(O)c(O)c2)c1 (centres undefined) | 20.7 | > 50 | 14.5 | > 50 | 11.2 | 46 | 29.4 | > 50 | 10.9 | 30.5 | – | – | 38.8 | > 50 | 21.6 | > 50 | 13 | > 50 | 17.4 | > 50 |
| C[C@H]1[C@H](C)CC[C@]2(C(=O)O)CC[C@]3(C)C(=CC[C@@H]4[C@@]5(C)CC[C@H](OC(=O)/C=C/c6ccc(O)cc6)C(C)(C)[C@@H]5CC[C@]43C)[C@H]12 | 2.37 | 12.7 | 4.12 | > 50.3 | 7.37 | 21.9 | 6.53 | 34.3 | 6.38 | 19.7 | 5.27 | 12.7 | 4.82 | 28.9 | 9.2 | 32.4 | 13.3 | > 60.1 | 3.59 | 29.8 |
| Nc1nc(N)c2c(ccc3nccc32)[nH]1 | 0.755 | > 100 | 8.03 | 50.9 | 9.79 | > 91 | 2.53 | > 78.8 | 0.688 | 35.4 | 12.4 | > 100 | 17.2 | 89.4 | 1.03 | > 77.3 | 14.9 | > 80 | 4.14 | 31.1 |
| CCOC(=O)Cn1c(C)c(/C=N/NC(=O)c2cc3c(ccc4ccccc43)o2)c2ccccc21 | 0.627 | 5.85 | 0.401 | – | 0.609 | 2.84 | 0.345 | 7.83 | 0.0474 | 0.251 | 0.872 | 10.7 | 0.244 | 1.42 | 0.48 | 11.4 | 0.653 | > 27.8 | 0.753 | 2.61 |
| CC1(C)CC(OCCCC[P+](c2ccccc2)(c2ccccc2)c2ccccc2)CC(C)(C)N1O | 0.37 | 11.5 | 0.202 | 0.402 | 0.287 | 3.19 | 0.125 | 0.421 | 0.301 | 1.15 | 0.481 | 8.42 | 0.331 | 3.61 | 0.337 | 4.86 | 0.143 | 1.23 | 2.66 | 8.29 |
| CC1(O)CC2(O)C=CC3=C(C(=O)c4cccc(O)c4C3=O)C2(O)C(=O)C1O (centres undefined) | – | 25.3 | – | 0.436 | – | 7.54 | – | 2.17 | – | 3.32 | – | 9.55 | – | 19.1 | – | 1.67 | – | 3.51 | – | 4 |
| CN(C)C(=O)c1cc2cnc(Nc3ccc(-c4csc5c(=O)cc(N6CCNCC6)oc45)cc3)nc2n1C1CCCC1 | 1.16 | 3.81 | 0.671 | 4.64 | 0.551 | 2.03 | 0.271 | 1.72 | 0.94 | 6.61 | 0.491 | 5.11 | 0.313 | 2.03 | 0.418 | 2.09 | 0.949 | 9.5 | 1.64 | 4.58 |
